Data set [1] relates to Mycobacterium tuberculosis. Put plainly: The compound was tested for its ability to inhibit the growth of Mycobacterium tuberculosis strain H37Rv; Sensitive. Type of data set: functional, organism-based.
The test system of data set [2] is Mycobacterium avium. Description: The compound was tested for its ability to inhibit the growth of Mycobacterium avium; Resistant. Format: functional, organism-based.
Data set [3] deals with Mycobacterium avium. Description: The compound was tested for its ability to inhibit the growth of Mycobacterium avium. Format: functional.
For data set [4], the system named is Mycobacterium tuberculosis. Put plainly: The compound was tested for its ability to inhibit the growth of Mycobacterium tuberculosis strain H6/99. Type of data set: functional.
Data set [5] is described as follows: Solubility in DMSO:water(9:1). The settings on record: read-out: S. Format: physicochemical.
The subject of data set [6] is Mycobacterium tuberculosis. Put plainly: The compound was tested for its ability to inhibit the growth of Mycobacterium tuberculosis strain H37Rv. Type of data set: functional.

Among the data in ChEMBL document CHEMBL1132871, “Antimycobacterial activity of ionic fullerene derivatives” (Bioorg Med Chem Lett, 2000) are MIC and solubility values, retold here.

In brackets after ≈: the same amount, converted by molar mass.

By MIC is commonly meant the smallest concentration in the dilution series that meets the test's criterion for growth inhibition. Low readings indicate greater potency, high ones weaker potency. As to `CO[C@H]1/C=C/O[C@@]2(C)Oc3c(C)c(O)c4c(O)c(c(/C=N/N5CCN(C)CC5)c(O)c4c3C2=O)NC(=O)/C(C)=C\C=C\[C@H](C)[C@H](O)[C@@H](C)[C@@H](O)[C@@H](C)[C@H](OC(C)=O)[C@@H]1C`, the results for the MIC entry (in data set [1]; with Mycobacterium avium [2]) were “Sensitive” and “Resistant”, respectively.
In the case of `NNC(=O)c1ccncc1`, the MIC result in data set [1] is recorded as “Sensitive”; against Mycobacterium avium [2], “Resistant”.
For the compound `COCCOCCOCCN1CC23C4=C5C6=C7c8c9c%10c%11c%12c%13c%14c(c2c2c%15c%16c%17c%18c%19c(c5c5c%20c%21c%22c%23c(c8C%22C65)c%10c5c%11c6c%13c8c(c%15%14)c%16c%10c%18c%11c(c%20%19)c%21c%13c%23c5c5c%13c%11c%10c8c65)C%17C42)C%12C9C73C1COCCOCCOC` (stereo not given), the MIC against Mycobacterium avium [3] amounted to 50 µg/mL (≈ 47.7 µM); in data set [4], 500 µg/mL (≈ 477 µM); in data set [6], 500 µg/mL (≈ 477 µM). Moreover, in data set [5], the solubility turned out to be 30 µM (≈ 31.4 µg/mL).
For the compound `COCCOCCOCC[N+]1(C)CCCC1.[I-]`, the MIC (with Mycobacterium avium [3]; in data set [4]; in data set [6]) was > 500 µg/mL each time.
For the compound `COCCOCCOCCN1CCCC1COCCOCCOC` (stereo not given), the MIC (in the data set with Mycobacterium avium [3]; in data set [4]; in data set [6]) was > 500 µg/mL each time.
For `COCCOCCOCC1C23C4=C5C6=C7C8c9c(c%10c%11c%12c%13c%14c%15c(c4c4c%16c%17c%18c%19c%20c(c6c6c%21c%22c(c%23c9c%11c9c%23c%11c%22c%22c(c%20%21)c%19c%19c%17c%17c(c%15%16)c%14c%14c%12c9c9c%11c%22c%19c%17c%149)C68)C5C4%18)C2C%10%13)C73C[N+]1(C)C.[I-]` (stereo not given), the MIC was 500 µg/mL against Mycobacterium avium [3], 5 µg/mL in data set [4] and 50 µg/mL in data set [6]. In addition, the solubility in data set [5] turned out to be 15 µM.
For the compound `COCCOCCOCC1CCC[N+]1(C)C.[I-]` (stereo not given), the MIC (in the data set with Mycobacterium avium [3]; in data set [4]; in data set [6]) was > 500 µg/mL each time.
As for `COCCOCCOCC[N+]1(C)CC23C4=C5C6=C7c8c9c%10c%11c%12c%13c%14c(c2c2c%15c%16c%17c%18c%19c(c5c5c%20c%21c%22c%23c(c8C%22C65)c%10c5c%11c6c%13c8c(c%15%14)c%16c%10c%18c%11c(c%20%19)c%21c%13c%23c5c5c%13c%11c%10c8c65)C%17C42)C%12C9C73C1COCCOCCOC.[I-]` (stereo not given), the MIC in the data set on Mycobacterium avium [3] came out at 50 µg/mL; in data set [4] it was 5 µg/mL; in data set [6], 50 µg/mL. Moreover, in data set [5], the solubility turned out to be 95 µM.
For the compound `COCCOCCOCCN1CC23C4=C5C6=C7c8c9c%10c%11c%12c%13c%14c(c2c2c%15c%16c%17c%18c%19c(c5c5c%20c%21c%22c%23c(c8C%22C65)c%10c5c%11c6c%13c8c(c%15%14)c%16c%10c%18c%11c(c%20%19)c%21c%13c%23c5c5c%13c%11c%10c8c65)C%17C42)C%12C9C73C1` (stereo not given), the solubility in data set [5] was determined as 15 µM (≈ 13.7 µg/mL).
As to `COCCOCCOCC[N+]1(C)CC23C4=C5C6=C7c8c9c%10c%11c%12c%13c%14c(c2c2c%15c%16c%17c%18c%19c(c5c5c%20c%21c%22c%23c(c8C%22C65)c%10c5c%11c6c%13c8c(c%15%14)c%16c%10c%18c%11c(c%20%19)c%21c%13c%23c5c5c%13c%11c%10c8c65)C%17C42)C%12C9C73C1.[I-]` (stereo not given), the MIC was found to be 500 µg/mL in the data set on Mycobacterium avium [3], 500 µg/mL in data set [4] and 50 µg/mL in data set [6]. For the same compound, the solubility in data set [5] was 43 µM.
With `COCCOCCOCC[N+]1(C)CCCC1COCCOCCOC.[I-]` (stereo not given), the MIC (against Mycobacterium avium [3]; in data set [4]; in data set [6]) was > 500 µg/mL throughout.
Consider `COCCOCCOCC1N(C)CC23C4=C5C6=C7c8c9c%10c%11c%12c%13c%14c(c2c2c%15c%16c%17c%18c%19c(c5c5c%20c%21c%22c%23c(c8C%22C65)c%10c5c%11c6c%13c8c(c%15%14)c%16c%10c%18c%11c(c%20%19)c%21c%13c%23c5c5c%13c%11c%10c8c65)C%17C42)C%12C9C713` (stereo not given), for which the solubility in data set [5] was 15 µM (≈ 13.7 µg/mL).
Consider `COCCOCCOCC1CCCN1C` (stereo not given), for which the MIC (in the data set on Mycobacterium avium [3]; in data set [4]; in data set [6]) was > 500 µg/mL in each case.
Regarding `COCCOCCOCCN1CCCC1`, the MIC (against Mycobacterium avium [3]; in data set [4]; in data set [6]) was > 500 µg/mL throughout.
